Reference: ChEMBL document CHEMBL1157539, “Thousands of chemical starting points for antimalarial lead identification” (Nature, 2010)

These compounds were tested on Plasmodium falciparum (assay: GSK_TCMDC: Inhibition of Plasmodium falciparum 3D7 in whole erythrocytes, using parasite LDH activity as an index of growth.). Settings: Plasmodium falciparum, 3D7.
Format: functional, organism-based
With `Nc1nc(N)c2cc(C(F)(F)F)ccc2n1` the XC50 was 1130 nM. `COc1cc(OC)c(NC(=O)C2c3ccccc3C(=O)N(CC(C)C)C2c2cccs2)cc1Cl` (stereo not given) gave an XC50 of 46.4 nM. `CCCCCC(C)c1cc(O)c2c(c1)OC(C)(C)C=C2C1=CCN(Cc2ccccc2)CC1` (stereo not given) was tested, and the XC50 was 780 nM. `O=C(NCc1ccc(S(=O)(=O)N2CCC(CN3CCC(c4c[nH]c5ccccc45)CC3)CC2)s1)c1ccccc1` showed an XC50 of 843 nM. With `CC(=O)Nc1ccc(C(=O)Nc2ccc(-c3csc(-c4nc5ccccc5[nH]4)c3)cc2)cn1` the XC50 was 591 nM. For `CNC(=O)/C=C/c1cc(NC(=O)Nc2ccnc3c(Br)cccc23)ccc1OC`, the XC50 was 864 nM. Work on `CCOCCCn1c(=N)c(C(=O)NCc2ccc(OC)cc2)cc2c(=O)n3cccc(C)c3nc21` yielded an XC50 of 1060 nM. For `COc1cc2nc(N3CCN(C(=O)c4c(Cl)nsc4-c4ccccc4Cl)CC3)nc(N)c2cc1OC`, the XC50 was 534 nM. `Nc1ccc2c(N)c3ccccc3nc2c1` was tested, and the XC50 was 812 nM. Compound `CN1CC=C(C=Cc2c[nH]c3ccccc23)CC1` has an XC50 of 1340 nM. `O=C(C=Cc1ccc(-c2nc3ccccc3[nH]2)cc1)NC1CCN(Cc2ccccc2)CC1` was tested, and the XC50 was 740 nM. Compound `FC(F)(F)c1ccc(N2CCCN(Cc3cccc(-c4ccccc4CNCc4ccc5c(c4)OCO5)c3)CC2)nc1` has an XC50 of 1190 nM. Compound `COc1cc(CS(C)(=O)=O)ccc1Nc1nccc(-c2c(-c3cccc(NC(=O)c4c(F)cccc4F)c3)nn3ccccc23)n1` has an XC50 of 966 nM. In the case of `O=C(/C=C/c1ccc(Cl)c(Cl)c1)NCCCCCN1CCCC(C(=O)Nc2ccc(Cl)cc2)C1` (stereo not given), the XC50 is reported as 851 nM. `COc1c(C2=CCN(CCCCNC(=O)c3ccc(-c4ccc(C#N)cc4)cc3)CC2)ccc2c1CCCC2` showed an XC50 of 911 nM. `CC1CC(NCCCNc2cc(=O)c3ccccc3[nH]2)c2c(Cl)c(Cl)cc(Cl)c21` (stereo not given) showed an XC50 of 981 nM. `O=C(NCCCCN1CCC(c2ccc3c(c2O)CCCC3)CC1)c1ccc(NC(=O)c2ccc(Cl)cc2)cc1` gave an XC50 of 243 nM. Work on `CC(=O)NCC(=O)NC1=NC(=N)N(OCc2ccc3ccccc3c2)C(C)(C)N1` yielded an XC50 of 3.2 nM. `O=C(Nc1ccccc1Br)N[C@@H]1CCN(c2ccnc3ccccc23)C1` showed an XC50 of 935 nM. Work on `COc1ccc(-c2ccc(NC(=O)c3ccc(C#N)cc3)cc2)cc1CN1CCCN(C)CC1` yielded an XC50 of 152 nM. Work on `Nc1nccc(-c2ccc3c(/C=C/c4ccccc4)cnc(N)c3c2)n1` yielded an XC50 of 621 nM. For `Cc1cccc2nc(-c3ccc(-c4ccc(CNCCN5CCNCC5)cc4)s3)[nH]c12`, the XC50 was 1150 nM. `CCNc1cc(C(=O)N[C@@H](Cc2ccccc2)[C@H](O)CNCc2cccc(-c3cncnc3)c2)cc(N2CCCC2=O)c1` showed an XC50 of 663 nM. In the case of `O=C(Nc1ccc(N2CCCN(Cc3cccc(F)c3)CC2)cc1)c1ccc(F)cc1`, the XC50 is reported as 837 nM. For `O=C(Nc1ccccc1)N(Cc1ccccc1-c1cccc(CNCCc2ccccc2)c1)C1CCN(Cc2ccccc2)CC1`, the XC50 was 176 nM. Work on `CC1CCC(NC(=O)c2nn(-c3ccc(Cl)cc3)c(=O)c3ccccc23)CC1` (stereo not given) yielded an XC50 of 1080 nM. Compound `O=C(Nc1ccc(Cl)cc1)Nc1ccc2c(c1)N1CCN=C1S2` has an XC50 of 592 nM. In the case of `Oc1c(CNC2CCCCC2)cc(Cl)c2ccccc12`, the XC50 is reported as 838 nM. Work on `COc1cccc(OC)c1C(=O)N1CCC2(CC1)C(=O)N(CC(=O)NC1CCCCC1)CN2c1ccccc1` yielded an XC50 of 953 nM. `Oc1ccc(CN2CCC(NCc3cccc(C(F)(F)F)c3)CC2)cc1` showed an XC50 of 685 nM. In the case of `Cc1cc(-c2ccc(CNCc3ccc(F)cc3)cc2)ccc1S(=O)(=O)NCCN1CCCC1`, the XC50 is reported as 719 nM. For `Cc1[nH]c2ccccc2c1C1=CCN(CCCCC2(C)C(=O)Nc3ccccc32)CC1` (stereo not given), the XC50 was 232 nM. Work on `COc1ccc(Nc2nc(NCc3ccco3)c3ccccc3n2)cc1` yielded an XC50 of 740 nM. For `O=C(Cc1ccc[n+]([O-])c1)Nc1cccc(-c2cccc(-c3nc4cc(C(F)(F)F)ccc4[nH]3)c2)c1`, the XC50 was 784 nM. `CC(C)N1CCC(N(Cc2ccc(-c3ccc(C(F)(F)F)cc3)cc2)C(=O)Cn2c(CCc3cccc(F)c3F)cc(=O)c3ccccc32)CC1` showed an XC50 of 850 nM. `O=C(Nc1ccccc1)c1cccc(Nc2nccc(Nc3ccc(Oc4ccccc4)cc3)n2)c1` showed an XC50 of 1550 nM. `CCN(CCCN1CCCCC1)c1cc(C)nc(Nc2ccc(C(F)(F)F)cc2)n1` was tested, and the XC50 was 374 nM. `CCOc1ccc2nc(N(CCCn3ccnc3)C(=O)C=Cc3cccs3)sc2c1` was tested, and the XC50 was 777 nM. In the case of `CCOc1ccccc1C(=O)Nc1cccc(-c2nc3ncccn3c2C)c1`, the XC50 is reported as 846 nM. In the case of `O=C(NCc1ccc(Cl)cc1)c1ccc(C(=O)NCC2CCCN2CC2CCCCC2)cc1` (stereo not given), the XC50 is reported as 854 nM. For `COc1ccc(NC(=O)c2ccc(Br)c(C)c2)cc1N1CCN(Cc2ccccc2)CC1`, the XC50 was 918 nM. For `CCNc1cc(C(=O)N[C@@H](Cc2ccccc2)[C@H](O)CNC2(Cc3cccc(Cl)c3)CCC2)cc(N2CCCCS2(=O)=O)c1`, the XC50 was 1180 nM. `CC(C)(C)NCCN(Cc1ccc(-c2ccc(C(F)(F)F)cc2)cc1)C(=O)Cn1c(CCc2cccc(F)c2F)nc(=O)c2c1CCC2` showed an XC50 of 948 nM. `Cc1c[nH]c2ccc(/C=C/C(=O)NC3CCC(CCN4CCc5ccc(C#N)cc5CC4)CC3)cc12` (stereo not given) showed an XC50 of 828 nM. Work on `COc1cc2c(cc1OC)CN(CCCCc1ccc(NC(=O)c3cc(Cl)cc(Cl)c3)cc1)CC2` yielded an XC50 of 1200 nM. In the case of `O=C(NCCSCc1c(F)cccc1Cl)c1cnc2c(c1)nc(-c1c[nH]c(-c3ccccc3)n1)n2CCc1c[nH]cn1`, the XC50 is reported as 807 nM. `O=S(=O)(Nc1cccc(CCN2CCC(N3CCCCC3)CC2)c1)c1ccc(-c2ccccc2)cc1` showed an XC50 of 1120 nM. For `CC(C)C(C(=O)Nc1ccc(S(=O)(=O)N(C)C)cc1)c1ccc(Cl)cc1` (stereo not given), the XC50 was 937 nM. With `CC(C)(C)c1cc([N+](=O)[O-])cc(C(=O)Nc2ccccc2C(F)(F)F)c1O` the XC50 was 652 nM. Compound `CN1CCCN(c2ccnc3cc4c(cc23)N(C(=O)c2ccc(Cl)c(Cl)c2)CC4)CC1` has an XC50 of 870 nM. With `CCN(CC)CCCC(C)Nc1c2ccc(Cl)cc2nc2ccc(OC)cc12` (stereo not given) the XC50 was 44.1 nM. Compound `Nc1nc(N)c2c(ccc3c2ccn3Cc2cccc3ccccc23)n1` has an XC50 of 3.2 nM. In the case of `N=C(N)NC(=O)Nc1cc(Cl)c(Br)c(Cl)c1`, the XC50 is reported as 469 nM. In the case of `CC(C)N1CCN(C(=O)c2ccc(CNCCCN3CCN(c4cccc(Cl)c4Cl)CC3)o2)CC1`, the XC50 is reported as 737 nM. With `CCc1cc2c3c(N)nc(N)nc3ccc2n1C(C)(C)C` the XC50 was 12.7 nM. `CCN(CC)CCN(Cc1ccc(-c2ccc(C(F)(F)F)cc2)cc1)C(=O)Cn1cc(Cc2cnn(C)c2)c(=O)nc1/C=C/c1cccc(F)c1F` was tested, and the XC50 was 957 nM. `Clc1ccc(CNc2ccnc(NCCc3coc4ccccc34)n2)c(Cl)c1` showed an XC50 of 1170 nM. Work on `CCc1ccc(C2=Nn3c(nnc3-c3cccs3)SC2)cc1` yielded an XC50 of 1290 nM. Compound `CCNCc1cccc(-c2ccc3ccnc(N)c3c2)c1` has an XC50 of 46.9 nM. `O=C(CCc1ccco1)NC1CCN(CC2(c3ccc(Cl)cc3)CCC2)CC1` gave an XC50 of 1450 nM. For `CN(C)CCNCc1cccc(-c2ccc3c(Nc4cc(O)c(Cl)cc4F)ccnc3c2)c1`, the XC50 was 549 nM. `CCCCCCOc1ccc2ccccc2c1CNCCCCCCNCc1c(OCCCCCC)ccc2ccccc12` gave an XC50 of 1060 nM. `C[C@@H](COc1ccccc1)NCC(O)c1ccc([N+](=O)[O-])c(OCc2ccccc2)c1` (stereo not given in full) showed an XC50 of 994 nM. `O=C(Nc1ccc2nc3n(c(=O)c2c1)CCCCC3)C(=O)N1CCC(Cc2ccccc2)CC1` showed an XC50 of 757 nM. For `O=C(Nc1ccc(-c2nc3ccccc3[nH]2)cc1)c1ccc(S(=O)(=O)N2CCc3ccccc32)cc1`, the XC50 was 741 nM. `N#Cc1ccc(S(=O)(=O)N2C(c3cccc([N+](=O)[O-])c3)C(C(=O)c3ccccc3)N(C3CCCCC3)C2c2cccc([N+](=O)[O-])c2)cc1` (stereo not given) gave an XC50 of 1080 nM. With `CCOC(=O)/C(=N\OC(C)(C)C(=O)NCc1ccc(O)c(O)c1)c1csc(NC(c2ccccc2)(c2ccccc2)c2ccccc2)n1` the XC50 was 170 nM. `COc1cc2nc(N3CCC(CNC(=O)c4ccc(-c5ccc(C#N)cc5C)cc4)CC3)nc(N)c2cc1OC` showed an XC50 of 180 nM. In the case of `CCCN(CCCCCCN(CCC)CCc1ccc(O)c(O)c1)CCc1ccc(O)cc1`, the XC50 is reported as 1010 nM. Compound `CN1C(=C2SC(=Nc3ccc4ncccc4c3)N(Cc3ccccc3)C2=O)Sc2ccc(Cl)cc21` has an XC50 of 1060 nM. `COc1ccc(NC(C)C(=O)Nc2ccc(Br)cc2)cc1S(=O)(=O)N1CCCCC1` (stereo not given) showed an XC50 of 221 nM. With `CC(C)CC1(C(=O)OC(C)(C)C)CC(C(=O)OC(C)(C)C)C(c2cccs2)N1C(=O)c1ccc(C(C)(C)C)cc1` (stereo not given) the XC50 was 137 nM. With `CCN(CC)CCN(Cc1ccc(-c2ccc(C(F)(F)F)cc2)cc1)C(=O)Cn1c(CCc2cccc(F)c2F)nc(=O)c2ccc(C)cc21` the XC50 was 668 nM. `COc1ccccc1N1CCN(CCCCNC(=O)c2ccc(NC(=O)c3ccc(OC(F)(F)F)cc3)cc2)CC1` gave an XC50 of 663 nM. Compound `O=C(Nc1cccc(C(F)(F)F)c1)c1cccc(S(=O)(=O)NCC2CCCN2CC2CCCCC2)c1` (stereo not given) has an XC50 of 1110 nM. With `Cc1cccc2nc(-c3cccc(-c4cccc(NC(=O)c5ccc(=O)[nH]n5)c4)c3)[nH]c12` the XC50 was 789 nM. With `Fc1ccc2[nH]c(-c3cccc(-c4cccc(CNCCc5ccncc5)c4)c3)nc2c1` the XC50 was 170 nM. `N#Cc1cccc(C(=O)Nc2cccc(-c3ccc(C(=O)NCCCN4CCOCC4)cc3)c2)c1` was tested, and the XC50 was 749 nM. `CN(C)C(=O)c1cc(CNCc2ccccc2)ccc1-c1cccc(CNCc2ccc(-c3ccccc3)cc2)c1` showed an XC50 of 1050 nM. `CC(=O)Nc1ncc(C(=O)Nc2cccc(-c3ccc(-c4nc5cc(C(F)(F)F)ccc5[nH]4)s3)c2)s1` gave an XC50 of 398 nM. In the case of `CN(C)CCCOc1cccc(NC(=O)Nc2ccc(-c3ccccc3)cc2)c1`, the XC50 is reported as 868 nM. Work on `CNC(=O)C1Cc2c([nH]c3cc(Cl)ccc23)C2(CCN(CCc3ccccc3)CC2)N1` (stereo not given) yielded an XC50 of 934 nM. With `CCCCCCCN1CCC(CCNc2ccnc3ccc(OC)cc23)CC1` the XC50 was 955 nM. With `COc1cc2ccccc2c(OC)c1CCNCCCCNCCc1c(OC)cc2ccccc2c1OC` the XC50 was 891 nM. `COc1cc(OC)cc(-c2nn(-c3ccc([N+](=O)[O-])cc3C#N)c(=S)n2Cc2ccco2)c1` showed an XC50 of 577 nM. With `CC(C)(C)C1CCC(C(=O)c2ccc3ccccc3c2O)CC1` (stereo not given) the XC50 was 751 nM. Work on `N=C(NCCCCCCNC(=N)NC(=N)c1ccc(Cl)cc1)NC(=N)c1ccc(Cl)cc1` yielded an XC50 of 212 nM. For `COc1cc(Cc2cnc(N)nc2N)cc(OCCCCC2NC(=O)NC2=O)c1OC` (stereo not given), the XC50 was 714 nM. `O=C(Nc1ccc(I)cc1)N1CCc2sccc2C1CN1CCCCC1` (stereo not given) showed an XC50 of 1200 nM. Compound `CN(C)CCNC(=O)NC1CN(c2ncnc3cc(-c4ccccc4)sc23)C1` has an XC50 of 585 nM. In the case of `COc1ccc(CNc2ccnc(-n3cnc4cc(C)c(C)cc43)n2)cc1Cl`, the XC50 is reported as 274 nM. `CCNC(=O)Nc1ccc(-c2cnc(N)c(-c3nc4ccc(OC)cc4[nH]3)c2)cc1` gave an XC50 of 499 nM. With `Cc1cccc(CN2CCCN(Cc3cccc(C(=O)Nc4ccc(C(C)(C)C)cc4)c3)CC2)c1` the XC50 was 934 nM. For `c1ccc2c(NCCc3c[nH]cn3)c3ccccc3nc2c1`, the XC50 was 1040 nM. `CCc1cc(-c2onc(C(F)(F)F)c2-c2ccccc2)c(O)cc1OC` showed an XC50 of 787 nM.
